Laboratory results from patent US6444617B1, “Fused-heterocycle dicarboxylic acid diamide derivatives or salts thereof, herbicide and usage thereof” (Nihon Nohyaku Co., Ltd., priority 1998, dated 2002).

Columns and labels:
Assay type in all cases: in vivo
soybean plant = assay: Test Example 4: phytotoxicity to upland crop plants, treatment after emergence; conditions: dosage 5 kg/ha, sprayed after emergence, judged 14 days after treatment
How it was run: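 Post-emergence foliar spray at a prescribed concentration, applied once the sown weeds and soybean reached defined leaf stages in soil vats; herbicidal effect and soybean injury scored after 14 days.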

wheat = assay: as above; conditions: dosage 5 kg/ha, sprayed after emergence, judged 14 days after treatment
How it was run: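 Weeds, soybean and wheat were sown in soil-filled vats, covered with soil and grown to set leaf stages before a post-emergence spray of an agent containing the compound at a prescribed concentration. Weed-killing rate and crop phytotoxicity were assessed 14 days after treatment.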

[1] = test system: bulrush (Scirpus juncoides Roxb.); assay: Test Example 1: herbicidal effect on paddy field weeds before emergence; conditions: Dosage 5 kg/ha
How it was run: (§1)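 Grading reflects percent control relative to untreated plots, evaluated three weeks post-application. Treatment was a soil application of compound solution, predetermined dose, made to paddy-state pots before weed seeds germinated.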

[2] = test system: barnyard grass (Echinochloa crus-galli Beauv.); assay: as above; conditions: Dosage 5 kg/ha
How it was run: as §1

[3] = test system: forxtail grass (Alopecurus aequalis var. amurensis Ohwi), Am; assay: Test Example 3: herbicidal effect on upland weeds before emergence; conditions: foxtail grass, dosage 5 kg/ha
How it was run: (§2)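 Pre-emergence spray of liquid prep, compound at set concentration; read at 14 d post-treatment; weed-kill rate calculated, effect graded.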

[4] = test system: bird's eye speedwell (Veronica persica Poir.), Vp; assay: as above; conditions: dosage 5 kg/ha
How it was run: as §2

[5] = test system: velvetleaf (Abutilon theophtasti L.), At; assay: as above; conditions: dosage 5 kg/ha
How it was run: as §2

[6] = test system: cleavers (Galium aparine L.), Ga; assay: as above; conditions: dosage 5 kg/ha
How it was run: as §2

[7] = test system: barnyard grass (Echinochloa crus-galli Beauv.), Ec; assay: as above; conditions: dosage 5 kg/ha
How it was run: as §2

[8] = test system: cocklebur (Xanthium strumarium L.), Xs; assay: as above; conditions: dosage 5 kg/ha
How it was run: as §2

wheat (Wh) = assay: Test Example 3: phytotoxicity to upland crop plants, treatment before emergence; conditions: dosage 5 kg/ha
How it was run: (§3)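 Pre-emergence spray, test compound at prescribed conc. in liquid formulation; crop injury (soybean, wheat) read at day 14, scored by criterion.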

soybean plant (So) = assay: as above; conditions: dosage 5 kg/ha
How it was run: as §3

[9] = test system: forxtail grass (Alopecurus aequalis var. amurensis Ohwi), Am; assay: Test Example 4: herbicidal effect on upland weeds after emergence; conditions: dosage 5 kg/ha; sprayed after emergence; judged 14 days after treatment
How it was run: (§4)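 Post-emergence foliar spray, compound at prescribed concentration, applied at defined leaf stages; weeds plus soybean/wheat grown in soil vats. Read-out: weed-killing rate and crop injury, 14 d post-treatment.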

[10] = test system: bird's eye speedwell (Veronica persica Poir.), Vp; assay: as above; conditions: dosage 5 kg/ha; sprayed after emergence; judged 14 days after treatment
How it was run: as §4

[11] = test system: velvetleaf (Abutilon theophtasti L.), At; assay: as above; conditions: dosage 5 kg/ha; sprayed after emergence; judged 14 days after treatment
How it was run: as §4

[12] = test system: cleavers (Galium aparine L.), Ga; assay: as above; conditions: dosage 5 kg/ha; sprayed after emergence; judged 14 days after treatment
How it was run: as §4

[13] = test system: barnyard grass (Echinochloa crus-galli Beauv.), Ec; assay: as above; conditions: dosage 5 kg/ha; sprayed after emergence; judged 14 days after treatment
How it was run: as §4

[14] = test system: cocklebur (Xanthium strumarium L.), Xs; assay: as above; conditions: dosage 5 kg/ha; sprayed after emergence; judged 14 days after treatment
How it was run: as §4

[15] = test system: bulrush (Scirpus juncoides Roxb.); assay: Test Example 2: herbicidal effect on paddy field weeds after emergence; conditions: Dosage 5 kg/ha; one-leaved stage; 21 days after treatment
How it was run: (§5)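 Weeds were sown in 1/10000 are pots of soil flooded to paddy conditions and grown to the one-leaf stage, then the soil was treated with a solution of compound at a predetermined dosage.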

[16] = test system: barnyard grass (Echinochloa crus-galli Beauv.); assay: as above; conditions: Dosage 5 kg/ha; one-leaved stage; 21 days after treatment
How it was run: as §5

[17] = test system: monochoria (Monochoria vaginalis Presl); assay: as above; conditions: Dosage 5 kg/ha; one-leaved stage; 21 days after treatment
How it was run: as §5

SMILES	Phytotoxicity So (soybean plant)	Phytotoxicity Wh (wheat)	Pre-emergence treatment Bulrush (herbicidal effect) [1]	Pre-emergence treatment Barnyard grass (herbicidal effect) [2]	Herbicidal effect Am [3]	Herbicidal effect Vp [4]	Herbicidal effect At [5]	Herbicidal effect Ga [6]	Herbicidal effect Ec [7]	Herbicidal effect Xs [8]	Phytotoxicity Wh (wheat (Wh))	Phytotoxicity So (soybean plant (So))	Herbicidal effect Am [9]	Herbicidal effect Vp [10]	Herbicidal effect At [11]	Herbicidal effect Ga [12]	Herbicidal effect Ec [13]	Herbicidal effect Xs [14]	Post-emergence treatment Bulrush (herbicidal effect) [15]	Post-emergence treatment Barnyard grass (herbicidal effect) [16]	also measured
CCCNC(=O)c1nc2c(cc1C(=O)Nc1cccc(Cl)c1C)CCOC2 [compound 450]	4 (Crop-killing rate is 90-99%.)	4 (Crop-killing rate is 90-99%.)	5 (Weed-killing rate is 100%.)	5 (Weed-killing rate is 100%.)	5 (Weed-killing rate is 100%.)	5 (Weed-killing rate is 100%.)	5 (Weed-killing rate is 100%.)	4 (Weed-killing rate is 90-99%.)	5 (Weed-killing rate is 100%.)	4 (Weed-killing rate is 90-99%.)	4 (Crop-killing rate is 90-99%.)	4 (Crop-killing rate is 90-99%.)	5 (Weed-killing rate is 100%.)	5 (Weed-killing rate is 100%.)	5 (Weed-killing rate is 100%.)	4 (Weed-killing rate is 90-99%.)	5 (Weed-killing rate is 100%.)	4 (Weed-killing rate is 90-99%.)	5 (Weed-killing rate is 100%.)	5 (Weed-killing rate is 100%.)	Post-emergence treatment Monochoria (herbicidal effect) [17]: 5 (Weed-killing rate is 100%.)
CCCNC(=O)c1nc2c(cc1C(=O)Nc1cccc(Cl)c1C)COCC2 [compound 474]	3 (Crop-killing rate is 70-89%.)	3 (Crop-killing rate is 70-89%.)	5 (Weed-killing rate is 100%.)	5 (Weed-killing rate is 100%.)	5 (Weed-killing rate is 100%.)	5 (Weed-killing rate is 100%.)	5 (Weed-killing rate is 100%.)	4 (Weed-killing rate is 90-99%.)	5 (Weed-killing rate is 100%.)	4 (Weed-killing rate is 90-99%.)	4 (Crop-killing rate is 90-99%.)	3 (Crop-killing rate is 70-89%.)	5 (Weed-killing rate is 100%.)	5 (Weed-killing rate is 100%.)	5 (Weed-killing rate is 100%.)	4 (Weed-killing rate is 90-99%.)	5 (Weed-killing rate is 100%.)	4 (Weed-killing rate is 90-99%.)	5 (Weed-killing rate is 100%.)	5 (Weed-killing rate is 100%.)	Post-emergence treatment Monochoria (herbicidal effect) [17]: 5 (Weed-killing rate is 100%.)
CCCNC(=O)c1nc2c(cc1C(=O)Nc1c(CC)ccc(Cl)c1CC)OCCC2 [compound 486]	4 (Crop-killing rate is 90-99%.)	4 (Crop-killing rate is 90-99%.)	5 (Weed-killing rate is 100%.)	5 (Weed-killing rate is 100%.)	5 (Weed-killing rate is 100%.)	5 (Weed-killing rate is 100%.)	5 (Weed-killing rate is 100%.)	5 (Weed-killing rate is 100%.)	5 (Weed-killing rate is 100%.)	5 (Weed-killing rate is 100%.)	4 (Crop-killing rate is 90-99%.)	4 (Crop-killing rate is 90-99%.)	5 (Weed-killing rate is 100%.)	5 (Weed-killing rate is 100%.)	5 (Weed-killing rate is 100%.)	5 (Weed-killing rate is 100%.)	5 (Weed-killing rate is 100%.)	5 (Weed-killing rate is 100%.)	5 (Weed-killing rate is 100%.)	5 (Weed-killing rate is 100%.)	Post-emergence treatment Monochoria (herbicidal effect) [17]: 5 (Weed-killing rate is 100%.)
CCCNC(=O)c1nc2c(cc1C(=O)Nc1cccc(Cl)c1C)OCCC2 [compound 498]	4 (Crop-killing rate is 90-99%.)	4 (Crop-killing rate is 90-99%.)	5 (Weed-killing rate is 100%.)	5 (Weed-killing rate is 100%.)	5 (Weed-killing rate is 100%.)	5 (Weed-killing rate is 100%.)	5 (Weed-killing rate is 100%.)	4 (Weed-killing rate is 90-99%.)	5 (Weed-killing rate is 100%.)	4 (Weed-killing rate is 90-99%.)	4 (Crop-killing rate is 90-99%.)	4 (Crop-killing rate is 90-99%.)	5 (Weed-killing rate is 100%.)	5 (Weed-killing rate is 100%.)	5 (Weed-killing rate is 100%.)	4 (Weed-killing rate is 90-99%.)	5 (Weed-killing rate is 100%.)	4 (Weed-killing rate is 90-99%.)	5 (Weed-killing rate is 100%.)	5 (Weed-killing rate is 100%.)	Post-emergence treatment Monochoria (herbicidal effect) [17]: 5 (Weed-killing rate is 100%.)
CCCNC(=O)c1nc2c(cc1C(=O)Nc1c(CC)ccc(Cl)c1CC)CCCS2 [compound 510]	4 (Crop-killing rate is 90-99%.)	5 (Crop-killing rate is 100%.)	5 (Weed-killing rate is 100%.)	5 (Weed-killing rate is 100%.)	5 (Weed-killing rate is 100%.)	5 (Weed-killing rate is 100%.)	5 (Weed-killing rate is 100%.)	5 (Weed-killing rate is 100%.)	5 (Weed-killing rate is 100%.)	5 (Weed-killing rate is 100%.)	5 (Crop-killing rate is 100%.)	4 (Crop-killing rate is 90-99%.)	5 (Weed-killing rate is 100%.)	5 (Weed-killing rate is 100%.)	5 (Weed-killing rate is 100%.)	5 (Weed-killing rate is 100%.)	5 (Weed-killing rate is 100%.)	5 (Weed-killing rate is 100%.)	5 (Weed-killing rate is 100%.)	5 (Weed-killing rate is 100%.)	Post-emergence treatment Monochoria (herbicidal effect) [17]: 5 (Weed-killing rate is 100%.)
